molecular target: T1, CCK-1 receptor (Homo sapiens, UniProt P32238); assay: [125I]-BH-CCK-8S competition binding to membranes of CHO-K1 cells stably transfected with the CCK-1 receptor; details: membranes of CCK-1 transfected CHO-K1 cells; 20 pM [125I]-BH-CCK-8S; 0.3 μM PD-134,308 present; 60 min at 21±3° C.; Cheng-Prusoff
T1 construct: expressed in transfected cells; membranes
T1 sequence (P32238 1-428): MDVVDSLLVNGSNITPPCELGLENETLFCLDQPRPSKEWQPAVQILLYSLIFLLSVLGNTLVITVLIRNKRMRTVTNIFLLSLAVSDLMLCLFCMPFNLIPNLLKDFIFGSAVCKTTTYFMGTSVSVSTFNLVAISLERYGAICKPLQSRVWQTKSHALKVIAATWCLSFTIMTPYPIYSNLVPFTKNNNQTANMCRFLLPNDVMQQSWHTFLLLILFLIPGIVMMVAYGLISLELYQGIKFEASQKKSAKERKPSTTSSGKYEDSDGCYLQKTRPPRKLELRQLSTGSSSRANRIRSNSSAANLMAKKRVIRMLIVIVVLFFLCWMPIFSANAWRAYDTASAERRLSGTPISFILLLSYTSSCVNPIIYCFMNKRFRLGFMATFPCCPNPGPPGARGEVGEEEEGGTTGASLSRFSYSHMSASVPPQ
Experimental: CHO-K1 cells that had undergone stable transfection with the CCK-1 receptor were grown in DMEM supplemented with L-glutamine (2 mM), penicillin (50 units/mL) and streptomycin (50 μg/mL). Cells were cultured under continuous G418 selection (2 mM) and were harvested using a rubber cell scraper. CHO-K1 cells were sub-cultured a maximum of ten times before being reseeded from the original stocks.
Membranes were prepared from the stably transfected CHO-K1 cells. Frozen cell pellets (−40° C.) were thawed in 14 mL of buffer A (10 mM HEPES, 130 mM NaCl, 4.7 mM KCl, 5 mM MgCl, 1 mM EGTA and 15.4 mg/100 mL bacitracin at pH 7.2), adapted from Harper et al. (Br. J. Pharmacol. 1996, 118:1717-1726). The thawed pellets were homogenized using a Polytron PT-10 (7×1 s). The homogenates were centrifuged for 5 min at 1500 rpm (600×g), and the resulting pellets were discarded. The supernatants were re-centrifuged in order to collect the receptor-membrane pellets (25 min 15,000 rpm; 39,800×g), which were re-suspended in buffer A.
All assays were conducted in 96-well plates (GF/B millipore filter plates) using buffer A, with 0.3 μM PD-134,308, for the dilutions. The CCK-2 receptor ligand was included to eliminate the contribution of this receptor subtype to the binding. For the optimal cell number determination experiments 20 pM [^125I]-BH-CCK-8S (50 μL 60 pM solution) was incubated with a range of cell concentrations (2.5×105 to 12.5×10^5 cells/well) in a total volume of 150 μL. Total binding of [^125I]-BH-CCK-8S was determined in the presence of 15 μL of buffer A. Non-specific binding of [^125I]-BH-CCK-8S was determined in the presence of 15 μL of 100 μM 2-naphthalenesulphonyl L-aspartyl-(2-phenethyl)amide (2-NAP: see R. A. Hull et al. Br. J. Pharmacol. 1993, 108:734-740), a CCK-1 receptor selective antagonist that is structurally unrelated to the radioligand [^125I]-BH-CCK-8S. The assay preparation was incubated for 1 h at 21±3° C., and then the assay was terminated upon rapid filtration of the preparation under reduced pressure. The loaded filters were washed three times using undiluted PBS (100 μL), and then the residues were transferred to 5 mL scintillation tubes. Bound radioactivity was determined using a gamma counter (count time=1 min). From these experiments a cell concentration of 1 pellet in 40 mL of buffer (2.5×10^6 cells/mL) was chosen for use in other assays (below). To validate the radioligand concentration and incubation time for the assay, saturation and kinetic binding studies were also conducted (see M. F. Morton, The Pharmacological Characterization of Cholecystokinin Receptors in the Human Gastrointestinal Tract. PhD Thesis, University of London, 2000). The affinity of novel compounds was estimated by incubating membrane preparations with 15 μL of competing ligand (0.1 pM-1 mM) for 60 min at 21±3° C. The assay was then terminated according to the procedure outlined above.
The pKi values were determined using the equation of Y.-C. Cheng and W. H. Prusoff (Biochem. Pharmacol. 1973, 22(23):3099-3108):
[formula] To circumvent problems associated with computer-assisted data analysis of compounds with low affinity, the data obtained in the current study were weighted according to a method described by Morton (2000). In brief, 100% and 0% specific binding were defined independently using total binding and binding obtained in the presence of a high concentration of the reference antagonist, 2-NAP.

SMILES	Ki [nM]
COc1ccc(-c2[nH]c(/C=C(\C(=O)O)c3ccc(C)cc3)nc2-c2ccc(Cl)c(Cl)c2)cc1 [Example 11, (Z)-3-[4-(3,4-Dichloro-phenyl)-5-(4-methoxy-phenyl)-1H-imidazol-2-yl]-2-p-tolyl-acrylic acid]	10
COc1ccc(-c2[nH]c(/C=C(\C(=O)O)c3cccc(C)c3)nc2-c2ccc(Cl)c(Cl)c2)cc1 [Example 9, (Z)-3-[4-(3,4-Dichloro-phenyl)-5-(4-methoxy-phenyl)-1H-imidazol-2-yl]-2-m-tolyl-acrylic acid]	7.94
COc1ccc(-c2[nH]c(/C=C(/C(=O)O)c3cccc(C(F)(F)F)c3)nc2-c2ccc(Cl)c(Cl)c2)cc1 [Example 16, (E)-3-[4-(3,4-Dichloro-phenyl)-5-(4-methoxy-phenyl)-1H-imidazol-2-yl]-2-(3-trifluoromethyl-phenyl)-acrylic acid]	79.4
COc1ccc(-c2[nH]c(CC(C(=O)O)c3cccc(C)c3)nc2-c2ccc(Cl)c(Cl)c2)cc1 (stereo not shown) [Example 24, 3-[4-(3,4-Dichloro-phenyl)-5-(4-methoxy-phenyl)-1H-imidazol-2-yl]-2-m-tolyl-propionic acid]	31.6
O=C(O)/C(=C\c1nc(-c2ccccn2)c(-c2ccc3ccccc3c2)[nH]1)c1cccc(Cl)c1 [Example 12, (Z)-2-(3-Chloro-phenyl)-3-(5-naphthalen-2-yl-4-pyridin-2-yl-1H-imidazol-2-yl)-acrylic acid]	5.01
COc1ccc(-c2[nH]c(/C=C(\C(=O)O)c3cccc(Cl)c3)nc2-c2ccc(Cl)c(Cl)c2)cc1 [Example 8, (Z)-2-(3-Chloro-phenyl)-3-[4-(3,4-dichloro-phenyl)-5-(4-methoxy-phenyl)-1H-imidazol-2-yl]-acrylic acid]	5.01
COc1ccc(-c2[nH]c(/C=C(/C(=O)O)c3ccc(Cl)cc3)nc2-c2ccc(Cl)c(Cl)c2)cc1 [Example 15, (E)-2-(4-Chloro-phenyl)-3-[4-(3,4-dichloro-phenyl)-5-(4-methoxy-phenyl)-1H-imidazol-2-yl]-acrylic acid]	79.4
COc1ccc(-c2[nH]c(CC(C(=O)O)c3ccc(Cl)cc3)nc2-c2ccc(Cl)c(Cl)c2)cc1 (stereo not shown) [Example 28, 2-(4-Chloro-phenyl)-3-[4-(3,4-dichloro-phenyl)-5-(4-methoxy-phenyl)-1H-imidazol-2-yl]-propionic acid]	63.1
Cc1cccc(/C(=C/c2nc(-c3cc(Cl)ccc3Cl)c(-c3ccc4c(c3)OCO4)[nH]2)C(=O)O)c1 [Example 3, (Z)-3-[5-Benzo[1,3]dioxol-5-yl-4-(2,5-dichloro-phenyl)-1H-imidazol-2-yl]-2-m-tolyl-acrylic acid]	2
COc1ccc(-c2[nH]c(/C=C(/C(=O)O)c3ccc(C)cc3)nc2-c2ccc(Cl)c(Cl)c2)cc1 [Example 14, (E)-3-[4-(3,4-Dichloro-phenyl)-5-(4-methoxy-phenyl)-1H-imidazol-2-yl]-2-p-tolyl-acrylic acid]	100

Reference: patent US7250434B2, “CCK-1 receptor modulators” (Janssen Pharmaceutica N.V., priority 2003, dated 2007)
